The values below come from ChEMBL document CHEMBL1201862, “PubChem BioAssay data set” (2004).

SMILES strings stand for the structures.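 Exposure lasted 48 hours, with cells grown in 96-well plates and compounds tested at five concentrations. GI50 marks 50% less growth.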 Calls of active or inactive are those of the source. Cut-off read from the data, not from the text of the source: active = GI50 up to about 1.1 µM and inactive = higher.

Among the test systems are A549; CCRF-CEM; COLO 205; HCT-15; HL-60; HOP-62; HOP-92; K562; KM12; M14; NCI-H522; OVCAR-5; RPMI-8226; RXF 393; SF-268; SF-295; SF-539; SN12C; SW-620; U-251.
Holding throughout (test): NCI tumour cell line growth inhibition, 48 h

In the case of `O=C1c2cccnc2-c2nccc3c2c1nc1ccccc13` [ASCIDIDEMIN], the GI50 in the assay on A549 was 255 nM (active); in the assay on CCRF-CEM it was 501 nM (active); with COLO 205 it was 1990 nM (inactive); with HCT-15, 37 nM; with HL-60 it was 100 nM (active); in the assay with HOP-62, 97 nM (active). Moreover, the GI50 in the assay with HOP-92 was 490 nM (active); with K562, 166 nM (active); in the assay with KM12, 183 nM (active); in the assay with M14 it was 46.6 nM (active); with NCI-H522, 97.5 nM (active); in the assay on OVCAR-5 it was 475 nM (active). Also, the GI50 in the assay with RPMI-8226 was 264 nM (active); in the assay on RXF 393, 140 nM (active); in the assay with SF-268, 109 nM (active); in the assay with SF-295, 79.8 nM (active); in the assay with SF-539 it was 189 nM (active); with SN12C it was 186 nM (active). Besides, the GI50 was 70.5 nM (active) in the assay with SW-620 and 84.5 nM (active) in the assay on U-251.
As to `Nc1ccccc1NC(=O)c1ccc(CNC(=O)OCc2cccnc2)cc1` [ENTINOSTAT], the GI50 with A549 was 3000 nM (inactive); with CCRF-CEM, 757 nM (active); with COLO 205 it was 1170 nM (inactive); with HCT-15, 3560 nM; in the assay with HL-60, 659 nM (active); in the assay with HOP-62 it was 2000 nM (inactive). For the same compound, the GI50 is 989 nM (active) with HOP-92; 627 nM (active) in the assay with K562; > 23400 nM (inactive) with KM12; 1040 nM (active) in the assay with M14; 908 nM (active) in the assay on NCI-H522; 125 nM (active) with OVCAR-5. Moreover, the GI50 in the assay on RPMI-8226 was 158 nM (active); in the assay with RXF 393, 2160 nM (inactive); with SF-268, 2430 nM (inactive); in the assay on SF-295 it was 2020 nM (inactive); with SF-539, 3760 nM (inactive); in the assay with SN12C, 4750 nM (inactive). Besides, the GI50 was 929 nM (active) in the assay with SW-620 and 1540 nM (inactive) with U-251.
Turning to `CC1CC(C)(O)CC(C(O)CC2CC(=O)NC(=O)C2)C1=O` (stereo not given) [RESACTIN A], the GI50 with A549 was 51.3 nM (active); in the assay on CCRF-CEM it was < 14 nM (active); with COLO 205, 38.1 nM (active); in the assay on HCT-15, 98.9 nM; in the assay with HL-60, 39.2 nM (active); in the assay with HOP-62 it was 27 nM (active). Further, the GI50 in the assay with HOP-92 is < 20 nM (active); in the assay on K562 it was 30.9 nM (active); in the assay with KM12, 32.7 nM (active); in the assay with M14, 34 nM (active); in the assay with NCI-H522 it was < 13.5 nM (active); in the assay on OVCAR-5 it was 59 nM (active). The GI50 in the assay on RPMI-8226 was 45.6 nM (active); in the assay with RXF 393 it was 34.4 nM (active); in the assay with SF-268 it was 45.5 nM (active); in the assay on SF-295, < 14.9 nM (active); in the assay on SF-539 it was 19.7 nM (active); with SN12C it was 20.2 nM (active). In addition, the values for the GI50 in the assay on SW-620 and with U-251 were 29.4 nM (active) and 31.3 nM (active), respectively.
